Source: patent US10532066B2, “Surfactant lipids, compositions thereof, and uses thereof” (National Jewish Health, priority 2007, dated 2020)

Experiments:
[1] = test system: multiple TLRs; test: Activation of primary bronchial epithelial cells by multiple TLRs (IL-8, Example 9); format: cell-based, human; conditions: 200 ug/ml POPG, 24 h
Procedure: Monolayers of normal human bronchial epithelial cells were stimulated with the TLR3 agonist, polyI:C (0.1 ug/ml); the TLR5 agonist, flagellin (10 ng/ml) and the TLR7/8 agonist polyU (100 ug/ml) for 24 h in either the absence or presence of 200 ug/ml POPG, or POPC as indicated. Cultures were also treated with POPG or POPC alone, as additional controls. After 24 h the medium was harvested and centrifuged to remove non-adherent cells, and processed to detect IL-8 production by ELISA. Values shown in FIG. 33 are averages±SE for 3 independent experiments.

[2] = biological target: T1, TLR2 (Mus musculus, UniProt Q9QUN7); test: TLR agonist TNFα production in RAW 264.7 cells, TLR2; format: cell-based; conditions: Mycoplasma pneumoniae membranes, 24 h
T1 construct: endogenous in cells; host or cells: RAW 264.7
Procedure: (§1) In this experiment, multiple TLRs were stimulated with defined TLR agonists for 24 h and the TNFα production was measured. In each case, the maximal stimulation by agonist is set at 100% and the antagonism by POPG is expressed as the relative % response. The Controls consist of no treatment, or treatment with POPG in the absence of agonist as indicated. The agonists for the TLRs consist of Pam3Cys for TLR1/2, Mycoplasma pneumoniae membranes as an agonist for TLR2, mycoplasma derived MALP2 as an agonist for TLR 2/6, double stranded RNA (poly IC) for TLR3, Gram-negative lipopolysaccharide for TLR4, and CpG rich DNA as an agonist for TLR9. The TLR4 panel also contains the antagonist polymyxin B (PB) for comparison with POPG.

[3] = test system: RSV; test: RSV binding to Hep2 cells (FACScan); format: cell-based, Respiratory Syncytial Virus (RSV); conditions: Hep2, multiplicity 50, 37 C 10 min, lipid 200 ug/ml
Procedure: Suspensions of 3×10^5 Hep2 cells were treated with RSV at a multiplicity of 50, at 37 C for 10 min, in either the absence of lipid, or the presence of 200 ug/ml POPG, or POPC, as indicated. The cells were next shifted to 0 C and washed 3 times with PBS. The cells were then incubated with monoclonal mouse anti-RSV antibody for 1 h at 0 C in PBS containing 5% BSA. The unbound antibody was removed by washing the cells 3 times with PBS, 5% BSA. Next, the cells were incubated with phycoerythrin conjugated rabbit anti-mouse antibody in PBS, 5% BSA for 2 h. Following this incubation the cells were washed 3 times with PBS and fixed overnight with 1% buffered formalin. The fixed cell preparation was washed 3 times with PBS and subjected to FACScan analysis as shown in the left panel of FIG. 38. The summary of the mean fluorescence intensity (MFI) for all conditions is shown in the right panel of FIG. 38.

[4] = biological target: T2, TLR3 (Mus musculus, UniProt Q99MB1); test: TLR agonist TNFα production in RAW 264.7 cells, TLR3; format: cell-based; conditions: poly IC, 24 h
T2 construct: endogenous in cells; host or cells: RAW 264.7
Procedure: as §1

[5] = test system: Respiratory Syncytial Virus (RSV); test: RSV replication in BEAS2B cells (anti-RSV antibody staining); format: cell-based; conditions: multiplicity 3, 72 h, POPG 200 ug/ml
Procedure: Monolayers of BEAS2B and NHBE cells were infected with RSV at a multiplicity of 3 for 72 h. Infections were performed on cells in either the absence or the presence of POPG (200 ug/ml). The cell monolayers were fixed and stained with goat anti-human RSV antibody conjugated with horseradish peroxidase. The presence of the antibody was detected with diaminobenzamidine. Controls consisted of cell layers not exposed to the virus or exposed to POPG in the absence of virus as indicated.

[6] = biological target: TLR2 (Homo sapiens, UniProt O60603); test: TLR agonist IL-8 production in primary human neutrophils, TLR2; format: cell-based; parameters: endogenous in cells; host or cells: primary human neutrophils; conditions: Pam3Cys, 5-24 h
Procedure: (§2) In this experiment, multiple TLRs were stimulated with defined TLR agonists for 5-24 h as indicated, and the IL-8 production was measured. In each case the maximal stimulation by agonist is set at 100% and the antagonism by POPG is expressed as the relative % response. The Controls consist of no treatment, or treatment with POPG, in the absence of agonist as indicated. The agonists for the TLRs consist of Pam3Cys for TLR1/2, double stranded RNA (poly IC) for TLR3, Gram-negative lipopolysaccharide (LPS) for TLR4, and single stranded RNA (polyU) for TLR7/8.

[7] = biological target: T3, TLR9 (Mus musculus, UniProt Q9EQU3); test: TLR agonist TNFα production in RAW 264.7 cells, TLR9; format: cell-based; conditions: CpG rich DNA, 24 h
T3 construct: endogenous in cells; host or cells: RAW 264.7
Procedure: as §1

[8] = biological target: T4, TLR3 (Homo sapiens, UniProt O15455); test: TLR agonist IL-8 production in primary human neutrophils, TLR3; format: cell-based; parameters: endogenous in cells; host or cells: primary human neutrophils; conditions: poly IC, 5-24 h
T4 sequence (O15455 24-904): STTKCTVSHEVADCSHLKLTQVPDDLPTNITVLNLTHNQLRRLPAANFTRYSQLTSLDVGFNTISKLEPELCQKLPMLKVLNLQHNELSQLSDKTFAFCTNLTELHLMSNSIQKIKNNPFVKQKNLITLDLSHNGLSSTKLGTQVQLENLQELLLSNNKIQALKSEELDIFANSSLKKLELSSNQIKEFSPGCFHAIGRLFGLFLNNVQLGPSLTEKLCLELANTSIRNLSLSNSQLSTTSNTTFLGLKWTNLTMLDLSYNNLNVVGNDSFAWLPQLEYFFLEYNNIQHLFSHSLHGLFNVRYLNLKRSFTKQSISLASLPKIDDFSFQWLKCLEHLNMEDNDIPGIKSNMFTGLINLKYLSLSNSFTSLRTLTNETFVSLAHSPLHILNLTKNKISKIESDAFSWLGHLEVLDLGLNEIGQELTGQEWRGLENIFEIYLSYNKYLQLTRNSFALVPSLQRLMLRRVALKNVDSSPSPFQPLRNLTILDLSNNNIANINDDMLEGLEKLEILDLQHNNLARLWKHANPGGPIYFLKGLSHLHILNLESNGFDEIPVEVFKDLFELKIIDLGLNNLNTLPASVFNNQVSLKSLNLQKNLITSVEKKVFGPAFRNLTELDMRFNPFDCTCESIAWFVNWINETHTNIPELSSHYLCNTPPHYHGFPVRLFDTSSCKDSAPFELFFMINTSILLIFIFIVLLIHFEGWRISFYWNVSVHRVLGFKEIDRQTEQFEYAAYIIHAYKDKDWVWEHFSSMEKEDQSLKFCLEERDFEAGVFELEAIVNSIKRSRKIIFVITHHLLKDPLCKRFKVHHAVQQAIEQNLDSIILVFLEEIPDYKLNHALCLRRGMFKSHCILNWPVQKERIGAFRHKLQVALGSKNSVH
Procedure: as §2

[9] = biological target: sTLR4 (Homo sapiens, UniProt O00206); test: sTLR4 binding to solid phase POPG; conditions: sTLR4 1 μg/ml
Sequence of sTLR4 (O00206 24-631): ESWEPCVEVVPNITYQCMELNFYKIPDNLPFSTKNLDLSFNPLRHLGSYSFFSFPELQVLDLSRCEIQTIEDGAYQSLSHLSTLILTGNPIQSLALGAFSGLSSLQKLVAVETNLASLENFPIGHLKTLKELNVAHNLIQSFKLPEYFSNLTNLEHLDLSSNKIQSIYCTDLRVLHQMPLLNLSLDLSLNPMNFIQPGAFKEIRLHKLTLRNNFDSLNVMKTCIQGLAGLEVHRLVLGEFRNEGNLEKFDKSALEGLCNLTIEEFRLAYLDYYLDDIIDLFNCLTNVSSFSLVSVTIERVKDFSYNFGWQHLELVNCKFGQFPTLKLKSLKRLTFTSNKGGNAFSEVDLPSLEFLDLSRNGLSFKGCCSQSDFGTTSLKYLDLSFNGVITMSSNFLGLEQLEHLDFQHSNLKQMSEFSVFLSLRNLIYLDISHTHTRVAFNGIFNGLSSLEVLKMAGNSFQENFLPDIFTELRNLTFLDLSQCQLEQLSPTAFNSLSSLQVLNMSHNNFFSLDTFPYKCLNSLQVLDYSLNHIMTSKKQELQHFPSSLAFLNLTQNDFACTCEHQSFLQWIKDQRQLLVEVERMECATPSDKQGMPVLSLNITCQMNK
Procedure: (A) POPG (1.25 nmole) was placed onto microtiter wells and the solvent evaporated. After blocking nonspecific binding with buffer A, MD-2, sTLR4 and PstB2 (1 μg/ml) in buffer A were added and incubated at 37° C. for 1 h. The binding of recombinant proteins to POPG was detected using anti-His antibody. […] The data shown are the means±S.E. from three separate experiments each with duplicate determinations.

Sequence of TLR2 (Homo sapiens, UniProt O60603) (O60603 21-784): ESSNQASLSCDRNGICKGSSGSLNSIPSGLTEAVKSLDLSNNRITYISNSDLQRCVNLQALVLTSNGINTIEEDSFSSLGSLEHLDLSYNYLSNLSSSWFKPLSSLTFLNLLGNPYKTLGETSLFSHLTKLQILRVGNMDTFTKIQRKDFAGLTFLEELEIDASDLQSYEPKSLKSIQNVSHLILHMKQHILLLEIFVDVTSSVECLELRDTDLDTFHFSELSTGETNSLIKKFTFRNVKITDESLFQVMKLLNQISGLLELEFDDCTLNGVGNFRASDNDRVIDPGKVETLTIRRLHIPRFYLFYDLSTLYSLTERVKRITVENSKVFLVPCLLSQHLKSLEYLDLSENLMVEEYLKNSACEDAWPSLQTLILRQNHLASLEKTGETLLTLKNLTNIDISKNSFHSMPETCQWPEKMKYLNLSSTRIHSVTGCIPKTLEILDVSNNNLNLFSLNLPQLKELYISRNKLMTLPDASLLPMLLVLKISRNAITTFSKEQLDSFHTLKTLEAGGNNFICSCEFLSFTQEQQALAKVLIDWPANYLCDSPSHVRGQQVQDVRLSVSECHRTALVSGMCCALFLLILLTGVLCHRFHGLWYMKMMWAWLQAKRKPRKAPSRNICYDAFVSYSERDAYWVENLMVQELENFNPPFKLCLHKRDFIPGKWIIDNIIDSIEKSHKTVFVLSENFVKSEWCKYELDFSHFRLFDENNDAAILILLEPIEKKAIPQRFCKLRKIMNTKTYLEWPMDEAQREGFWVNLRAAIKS
T2 sequence (Q99MB1 26-905): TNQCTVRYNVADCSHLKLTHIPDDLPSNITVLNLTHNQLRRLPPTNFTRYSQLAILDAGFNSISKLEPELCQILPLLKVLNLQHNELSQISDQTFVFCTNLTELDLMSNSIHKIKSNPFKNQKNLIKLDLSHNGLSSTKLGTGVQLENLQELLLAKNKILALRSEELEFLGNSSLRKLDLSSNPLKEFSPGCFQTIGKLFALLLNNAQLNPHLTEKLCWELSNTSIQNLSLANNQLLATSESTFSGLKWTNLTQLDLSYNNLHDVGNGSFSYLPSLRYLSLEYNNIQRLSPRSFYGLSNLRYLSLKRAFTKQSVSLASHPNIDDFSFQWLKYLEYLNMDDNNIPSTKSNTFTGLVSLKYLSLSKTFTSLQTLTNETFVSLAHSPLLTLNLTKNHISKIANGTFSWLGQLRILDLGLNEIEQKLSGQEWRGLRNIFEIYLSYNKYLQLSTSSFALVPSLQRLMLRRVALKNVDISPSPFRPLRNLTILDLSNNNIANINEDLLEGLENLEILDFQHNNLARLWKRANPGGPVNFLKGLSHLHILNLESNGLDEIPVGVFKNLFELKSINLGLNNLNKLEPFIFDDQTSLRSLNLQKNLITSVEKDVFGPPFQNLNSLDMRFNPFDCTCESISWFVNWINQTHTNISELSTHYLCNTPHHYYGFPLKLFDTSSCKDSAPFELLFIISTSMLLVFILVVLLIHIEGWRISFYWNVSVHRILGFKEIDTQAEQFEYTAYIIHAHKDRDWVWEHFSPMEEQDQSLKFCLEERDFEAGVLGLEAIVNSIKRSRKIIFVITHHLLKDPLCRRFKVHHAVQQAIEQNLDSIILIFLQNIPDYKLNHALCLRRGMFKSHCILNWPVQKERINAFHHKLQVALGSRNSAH
T1 sequence (Q9QUN7 25-784): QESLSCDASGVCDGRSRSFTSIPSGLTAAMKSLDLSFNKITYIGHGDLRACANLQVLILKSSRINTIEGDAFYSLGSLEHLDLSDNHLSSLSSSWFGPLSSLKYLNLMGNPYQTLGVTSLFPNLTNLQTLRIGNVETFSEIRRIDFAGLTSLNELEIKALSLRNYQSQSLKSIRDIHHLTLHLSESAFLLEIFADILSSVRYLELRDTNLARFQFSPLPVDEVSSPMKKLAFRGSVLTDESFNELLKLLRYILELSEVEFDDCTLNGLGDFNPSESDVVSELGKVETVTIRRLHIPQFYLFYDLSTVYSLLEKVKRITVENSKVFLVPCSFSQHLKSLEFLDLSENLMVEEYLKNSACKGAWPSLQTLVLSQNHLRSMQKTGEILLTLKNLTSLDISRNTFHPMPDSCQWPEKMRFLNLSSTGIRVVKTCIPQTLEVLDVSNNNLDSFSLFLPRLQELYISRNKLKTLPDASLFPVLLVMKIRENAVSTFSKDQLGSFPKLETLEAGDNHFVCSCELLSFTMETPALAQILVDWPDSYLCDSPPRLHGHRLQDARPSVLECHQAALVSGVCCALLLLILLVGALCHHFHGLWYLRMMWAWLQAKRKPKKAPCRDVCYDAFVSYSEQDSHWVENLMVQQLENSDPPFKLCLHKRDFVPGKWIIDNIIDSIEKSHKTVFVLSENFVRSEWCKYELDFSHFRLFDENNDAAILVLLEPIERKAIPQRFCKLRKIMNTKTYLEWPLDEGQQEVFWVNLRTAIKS
T3 sequence (Q9EQU3 26-1032): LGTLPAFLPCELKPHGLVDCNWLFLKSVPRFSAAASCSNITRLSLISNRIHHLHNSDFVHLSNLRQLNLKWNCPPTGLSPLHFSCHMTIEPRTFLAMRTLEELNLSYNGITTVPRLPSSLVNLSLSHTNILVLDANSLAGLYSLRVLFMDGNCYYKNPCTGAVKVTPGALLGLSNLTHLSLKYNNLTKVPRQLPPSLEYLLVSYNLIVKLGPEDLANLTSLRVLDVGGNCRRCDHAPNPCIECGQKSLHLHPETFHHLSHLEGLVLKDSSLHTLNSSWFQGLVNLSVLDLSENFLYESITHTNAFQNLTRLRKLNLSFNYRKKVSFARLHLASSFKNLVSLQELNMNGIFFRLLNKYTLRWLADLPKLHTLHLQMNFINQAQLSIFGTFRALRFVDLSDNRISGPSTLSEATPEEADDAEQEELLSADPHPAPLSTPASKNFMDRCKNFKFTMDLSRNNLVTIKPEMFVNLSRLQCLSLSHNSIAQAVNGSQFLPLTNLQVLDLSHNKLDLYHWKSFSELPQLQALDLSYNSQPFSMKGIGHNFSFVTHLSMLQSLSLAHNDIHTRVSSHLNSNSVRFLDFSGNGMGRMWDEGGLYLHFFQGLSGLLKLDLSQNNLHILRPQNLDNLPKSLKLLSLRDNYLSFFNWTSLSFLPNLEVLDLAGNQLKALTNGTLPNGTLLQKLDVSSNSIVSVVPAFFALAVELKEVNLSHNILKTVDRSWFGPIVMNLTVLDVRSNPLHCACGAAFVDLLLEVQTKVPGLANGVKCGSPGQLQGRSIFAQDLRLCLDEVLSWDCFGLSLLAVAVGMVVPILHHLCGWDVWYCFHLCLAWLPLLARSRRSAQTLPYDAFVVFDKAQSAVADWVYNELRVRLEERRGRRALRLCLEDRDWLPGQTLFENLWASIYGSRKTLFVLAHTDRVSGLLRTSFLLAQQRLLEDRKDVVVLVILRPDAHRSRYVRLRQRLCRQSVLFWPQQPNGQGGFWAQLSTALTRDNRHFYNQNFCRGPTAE

## CCCCCCCC/C=C\CCCCCCCC(=O)O[C@H](COC(=O)CCCCCCCCCCCCCCC)COP(=O)(O)OCC(O)CO (stereo partly drawn) [POPG, palmitoyl-oleoyl-phosphatidylglycerol]
[1]
  activation of primary bronchial epithelial cells by multiple TLRs (IL-8): inhibits activation
[2]
  activity of TLR2 (TNFα production): inhibits
[3]
  binding of RSV to epithelial cells: blocks the binding
[4]
  activity of TLR3 (TNFα production): inhibits
[5]
  viral replication: prevents viral replication
[6]
  activity of TLR2 (IL-8 production): inhibits
[7]
  activity of TLR9 (TNFα production): not
[8]
  activity of TLR3 (IL-8 production): inhibits
[9]
  binding to sTLR4: not
